Values after ≈ are worked out from the molar mass of the structure shown. Like-named read-outs stand apart in the source and are kept apart here.
What was measured:
[1] = tested on: Staph.Aureus; assay: Minimal bactericidal activity (MBC) in milk, field isolates; type: cell-based; details: for MBC: Staphylococcus aureus
From the text: (§1) The activity of some of said nitrofuryl quinolines derivatives against Strep.uberis and Stap.Aureus in milk has been compared with the activity of some of the compounds so far utilised in the treatment of bovine mastitis. The results are shown in Table I. (The nitrofuryl quinoline derivatives have general formula [drawing 1] the meaning of R, A, R', B, Y, X and Z being given in the Table. R1 =O whenever indicated then the N-oxide is concerned; NF stands for nitrofuryl)
(§2) Minimal Bactericidal/Activity (MBC) of representative Nitrofuryl
(§3) in mcg/ml in milk at pH 7.2 - 7.4. Versus Standards (Field

[2] = tested on: Strep.uberis; assay: as above; type: cell-based; details: for MBC: Streptococcus uberis
From the text: as §1, §2, §3

[3] = in milk at pH 7.2 - 7.4, field isolate 2337, read-out: Minimal Bactericidal Activity (MBC), Staph.Aureus 2337
[4] = in milk at pH 7.2 - 7.4, field isolate 2372, read-out: Minimal Bactericidal Activity (MBC), Staph.Aureus 2372
[5] = in milk at pH 7.2 - 7.4, field isolate 60B, read-out: Minimal Bactericidal Activity (MBC), Strep.uberis 60B
[6] = in milk at pH 7.2 - 7.4, field isolate 127A, read-out: Minimal Bactericidal Activity (MBC), Strep.uberis 127A
[7] = read-out: Minimal Bactericidal Activity (MBC), Staph.Aureus 2337
[8] = read-out: Minimal Bactericidal Activity (MBC), Staph.Aureus 2372
[9] = read-out: Minimal Bactericidal Activity (MBC), Strep.uberis 60B
[10] = read-out: Minimal Bactericidal Activity (MBC), Strep.uberis 127A

| Compound | MBC [1, 3] [mg/L] | MBC [1, 4] [mg/L] | MBC [2, 5] [mg/L] | MBC [2, 6] [mg/L] | further results |
| --- | --- | --- | --- | --- | --- |
| CC[C@H]1OC(=O)[C@H](C)[C@@H](O[C@H]2C[C@@](C)(OC)[C@@H](O)[C@H](C)O2)[C@H](C)[C@@H](O[C@@H]2O[C@H](C)C[C@H](N(C)C)[C@H]2O)[C@](C)(O)C[C@@H](C)C(=O)[C@H](C)[C@@H](O)[C@]1(C)O [Erythremycin, reference compound] | 0.78 (≈ 1.06 µM) | 6.25 (≈ 8.52 µM) | 0.39 (≈ 0.531 µM) | 3.12 (≈ 4.25 µM) | – |
| O=[N+]([O-])c1ccc(-c2ccc3ccccc3n2)o1 [Compound 3] | > 10 | > 10 | > 10 | > 10 | – |
| CCc1cc(-c2ccc([N+](=O)[O-])o2)c2cc(C)ccc2n1 [Compound 12] | > 10 | > 10 | > 10 | > 10 | – |
| CC(=O)Oc1ccc2c(-c3ccc([N+](=O)[O-])o3)cc(C)nc2c1 [Compound 8] | 5 (≈ 16 µM) | 5 (≈ 16 µM) | 0.25 (≈ 0.801 µM) | 10 (≈ 32 µM) | – |
| COc1cc2c(-c3ccc([N+](=O)[O-])o3)cc(C)[n+]([O-])c2cc1OC [Compound 39] | 10 (≈ 30.3 µM) | 0.5 (≈ 1.51 µM) | 0.25 (≈ 0.757 µM) | 1 (≈ 3.03 µM) | – |
| O=C1OC(CN2CCOCC2)CN1/N=C/c1ccc([N+](=O)[O-])o1 (centres unmarked) [Furaltadone, reference compound] | 10 (≈ 30.8 µM) | 10 (≈ 30.8 µM) | 1 (≈ 3.08 µM) | > 10 | – |
| COc1ccc2c(-c3ccc([N+](=O)[O-])o3)cc(C(=O)O)[n+]([O-])c2c1 [Compound 25] | 1 (≈ 3.03 µM) | 5 (≈ 15.1 µM) | 0.25 (≈ 0.757 µM) | 0.5 (≈ 1.51 µM) | – |
| O=C(N[C@H](CO)[C@H](O)c1ccc([N+](=O)[O-])cc1)C(Cl)Cl [Chloramphenicol, reference compound] | > 50 | > 50 | 50 (≈ 155 µM) | > 400 | – |
| CO[C@H]1/C=C/O[C@@]2(C)Oc3c(C)c(O)c4c(O)c(cc(O)c4c3C2=O)NC(=O)/C(C)=C\C=C\[C@H](C)[C@H](O)[C@@H](C)[C@@H](O)[C@@H](C)[C@H](OC(C)=O)[C@@H]1C [Rifamycin, reference compound] | 0.12 (≈ 0.172 µM) | 0.12 (≈ 0.172 µM) | 3.12 (≈ 4.47 µM) | > 50 | – |
| CN(C)[C@@H]1C(=O)C(C(N)=O)=C(O)[C@@]2(O)C(=O)C3=C(O)c4c(O)cccc4[C@@](C)(O)[C@H]3[C@H](O)[C@@H]12 [Oxytetracyclin, reference compound] | – | – | – | – | MBC [1, 7]: 25 mg/L (≈ 54.3 µM); MBC [1, 8]: 50 mg/L (≈ 109 µM); MBC [2, 9]: 0.78 mg/L (≈ 1.69 µM); MBC [2, 10]: > 50 mg/L |
| Cc1cc(-c2ccc([N+](=O)[O-])o2)c2ccccc2n1 [Compound 5] | > 10 | > 10 | 10 (≈ 39.3 µM) | 10 (≈ 39.3 µM) | – |
| Cc1cc(-c2ccc([N+](=O)[O-])o2)c2ccccc2[n+]1[O-] [Compound 6] | 5 (≈ 18.5 µM) | 5 (≈ 18.5 µM) | 5 (≈ 18.5 µM) | 5 (≈ 18.5 µM) | – |
| CNN=Cc1cc(-c2ccc([N+](=O)[O-])o2)c2ccccc2n1 [Compound 36] | > 10 | 5 (≈ 16.9 µM) | 5 (≈ 16.9 µM) | 5 (≈ 16.9 µM) | – |
| CC1(C)S[C@@H]2[C@H](NC(=O)Cc3ccccc3)C(=O)N2[C@H]1C(=O)O [Penicillin G, reference compound] | > 50 | > 50 | 0.06 (≈ 0.179 µM) | 1.56 (≈ 4.67 µM) | – |
| Spiramycin [reference compound] | – | – | – | – | Minimal Bactericidal Activity (MBC), Staph.Aureus 2337 ([1]; in milk at pH 7.2 - 7.4, field isolate 2337): 25 mg/L; Minimal Bactericidal Activity (MBC), Staph.Aureus 2372 ([1]; in milk at pH 7.2 - 7.4, field isolate 2372): 25 mg/L; Minimal Bactericidal Activity (MBC), Strep.uberis 60B ([2]; in milk at pH 7.2 - 7.4, field isolate 60B): 1.56 mg/L; Minimal Bactericidal Activity (MBC), Strep.uberis 127A ([2]; in milk at pH 7.2 - 7.4, field isolate 127A): 12.5 mg/L |
| Cc1ccc2c(c1)c(-c1ccc([N+](=O)[O-])o1)cc(C)[n+]2[O-] [Compound 29] | 5 (≈ 17.6 µM) | 5 (≈ 17.6 µM) | 5 (≈ 17.6 µM) | 5 (≈ 17.6 µM) | – |
| NC[C@H]1O[C@H](O[C@H]2[C@H](O)[C@@H](O[C@H]3O[C@H](CO)[C@@H](O)[C@H](N)[C@H]3O)[C@H](N)C[C@@H]2N)[C@H](O)[C@@H](O)[C@@H]1O [Kanamycin, reference compound] | – | – | – | – | MBC [1, 7]: 12.5 mg/L (≈ 25.8 µM); MBC [1, 8]: 12.5 mg/L (≈ 25.8 µM); MBC [2, 9]: 100 mg/L (≈ 206 µM); MBC [2, 10]: 100 mg/L (≈ 206 µM) |

From patent publication US4070469A, “Compound for the treatment of bovine mastitis” (priority 1975, dated 1978)
